# Measurements: patent US11773137B2, “Arid5a peptide inhibitors” (KING FAISAL UNIVERSITY, priority 2019, dated 2023)
# Where no end group is shown, it is not given here.
# Tested on: polarized Th17 cells
# Experiment: IL-17 production by naïve CD4+ T cells cultured under Th17-polarizing conditions
# Assay type: cell-based
# Conditions: PIA at 15, 30 and 45 μM
# Procedure: Naïve CD4^+ T cells were isolated from the spleen using MACS® CD4^+CD62L^+ isolation kit (Miltenyi Biotec). The isolated CD4^+CD62L^+ T cells were cultured in the presence of anti-CD3/CD28 dynabeads (Invitrogen), IL-6 (30 ng/mL; R&D Systems), transforming growth factor TGF-β1 (4 ng/mL; R&D Systems), anti-interferon IFN-γ and anti-IL-4 (10 μg/mL; Biolegend) for 72 h.
# The intensities of Arid5a immunoblot bands and IL-17 concentrations are presented as mean±SD from at least three independent experiments produced similar results. The statistical significance between mean values was tested by one-way ANOVA. *p<0.05 was considered significant.
# Arid5a plays an important role in the production of IL-17, a cytokine that plays pivotal roles in chronic inflammation and autoimmune diseases such as MS and rheumatoid arthritis, and cancer. Therefore, the effects of PIA (SEQ ID NO: 2) on IL-17 production by naïve CD4^+ cells cultured under Th17-polarizing conditions were examined. The CD4^+CD62L^+ T cells were cultured in the presence of anti-CD3/CD28 dynabeads, IL-6, TGF-β1, anti-IFN-γ and anti-IL-4.
sequence,measurement,value
"ACTVGGYE [PIA, ACTVGGYE]",cell viability,no significant effects on cell viability
